Data as given in PubChem BioAssay (NCI).
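How tested: cells in 96-well plates exposed to compound for 48 hours at five concentrations. TGI denotes the concentration required for complete inhibition of growth.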

Tests used:
Assay in all cases: NCI tumour cell line growth inhibition, 48 h
[1] = tested on: SNB-19 CNS
[2] = tested on: HCT-116 colon
[3] = tested on: RPMI-8226 leukemia
[4] = tested on: MALME-3M melanoma
[5] = tested on: HT29 colon
[6] = tested on: KM20L2 colon
[7] = tested on: OVCAR-4 ovarian
[8] = tested on: SK-OV-3 ovarian
[9] = tested on: SF-539 CNS
[10] = tested on: NCI-H460 lung
[11] = tested on: LXFL 529 NSCLC
[12] = tested on: M14 melanoma
[13] = tested on: SN12C renal
[14] = tested on: U251 CNS
[15] = tested on: A498 renal
[16] = tested on: COLO 205 colon
[17] = tested on: 786-0 renal
[18] = tested on: M19-MEL melanoma
[19] = tested on: KM12 colon
[20] = tested on: UO-31 renal
[21] = tested on: NCI-H23 lung
[22] = tested on: OVCAR-8 ovarian
[23] = tested on: HOP-92 NSCLC
[24] = tested on: A549 NSCLC
[25] = tested on: MOLT-4 leukemia
[26] = tested on: SW-620 colon
[27] = tested on: SNB-75 CNS
[28] = tested on: DLD-1 colon
[29] = tested on: K-562 leukemia
[30] = tested on: OVCAR-3 ovarian
[31] = tested on: LOX IMVI melanoma
[32] = tested on: HCC-2998 colon
[33] = tested on: SK-MEL-28 melanoma
[34] = tested on: TK-10 renal
[35] = tested on: HCT-15 colon
[36] = tested on: RXF 393 renal
[37] = tested on: UACC-257 melanoma
[38] = tested on: SK-MEL-2 melanoma
[39] = tested on: HOP-62 NSCLC
[40] = tested on: CCRF-CEM leukemia
[41] = tested on: SF-268 CNS
[42] = tested on: EKVX NSCLC
[43] = tested on: OVCAR-5 ovarian
[44] = tested on: HOP-18 NSCLC
[45] = tested on: NCI-H226 lung
[46] = tested on: RXF-631 renal
[47] = tested on: SF-295 CNS
[48] = tested on: ACHN renal
[49] = tested on: HL-60(TB) leukemia
[50] = tested on: NCI-H522 lung
[51] = tested on: DMS 273 small cell lung
[52] = tested on: DMS 114 small cell lung
[53] = tested on: SNB-78 CNS
[54] = tested on: UACC-62 melanoma
[55] = tested on: IGROV1 ovarian
[56] = tested on: SK-MEL-5 melanoma
[57] = tested on: CAKI-1 renal
[58] = tested on: SR leukemia

Measured: TGI

Nc1ccc(C(=O)CC2(O)C(=O)Nc3c(Cl)cc(Cl)cc32)cc1 (configuration not stated)
> 100 µM: [1] | [2] | [3] | [4] | [5] | [6] | [7] | [8] | [9] | [10] | [11] | [12] | [13] | [15] | [16] | [17] | [18] | [19] | [20] | [21] | [22] | [23] | [24] | [25] | [27] | [28] | [29] | [30] | [31] | [32] | [33] | [34] | [35] | [36] | [37] | [38] | [39] | [40] | [41] | [42] | [43] | [44] | [45] | [47] | [48] | [50]
79.8 µM: [46]
65.4 µM: [26]
95.7 µM: [14]
78.5 µM: [49]

CC1=C(/C=C/C(C)=C/C=C/C(C)=C/C=C/C=C(C)/C=C/C=C(C)/C=C/C2=C(C)C(=O)C(O)CC2(C)C)C(C)(C)CC(O)C1=O (configuration not stated)
> 100 µM: [1] | [2] | [3] | [4] | [5] | [6] | [7] | [51] | [8] | [9] | [10] | [12] | [13] | [14] | [15] | [16] | [17] | [18] | [52] | [53] | [19] | [20] | [21] | [22] | [23] | [24] | [25] | [54] | [26] | [27] | [55] | [28] | [29] | [30] | [31] | [32] | [33] | [56] | [34] | [35] | [36] | [37] | [38] | [39] | [57] | [40] | [41] | [42] | [43] | [44] | [45] | [46] | [47] | [48] | [49] | [50] | [58]
